Test results taken from patent US5356790A, “Highly sensitive assay method for myo-inositol, composition for practicing same, novel myo-inositol dehydrogenase, and process for producing same” (Asahi Kasei Kogyo Kabushiki Kaisha, priority 1990, dated 1994).
“And” between values parts separate entries of the source, which are not always exact repeats. Equal entries are not always repeated. Where two headings read alike, the source gives them in different places.

What was measured:
[1] = test system: myo-inositol dehydrogenase; test: Substrate specificity of myo-inositol dehydrogenase; format: biochemical, Bacillus sp. No. 3; conditions: myo-inositol = 100%
Experimental: 1. Substrate specificity:
The above reaction mixture (1 ml) is incubated in a small test tube at 37° C. for 5 mins. Diluted enzyme solution (0.02 ml) is added and the mixture is stirred to initiate the reaction. After exactly 10 mins., 0.1N HCl (2.0 ml) was added and the mixture is stirred to stop the reaction. Absorption at 550 nm (A550 nm) is measured to obtain absorption A1. The assay was repeated using the above reaction mixture except that myo-inositol was not included. The mixture is also treated in the same manner as described above and its absorption Ao was measured.
(3) Calculation of enzyme activity: [formula] wherein

[2] = test system: myo-inositol dehydrogenase; conditions: enzyme produced by yeast Cryptococcus melibiosum, cited from earlier work
[3] = test system: myo-inositol dehydrogenase; test: Km-value measurement for substrate and coenzymes; format: biochemical, Bacillus sp. No. 3
Experimental: Km-value for myo-inositol is measured at various concentrations of myo-inositol in a reaction mixture of:
Further in the reaction mixture, 1 mM NAD is replaced by 1 mM thio-NAD (Sigma Co. ) and the Km-value for myo-inositol is measured. The result is Km-value: 10.0 mM (myo-inositol).
Km-value in the reaction of NADP and myo-inositol are measured. The results are as follows:
Km-values in the reaction of the thio-NADP and myo-inositol are as follows: […]

[4] = test system: myo-inositol dehydrogenase; test: Relative activity with coenzyme thio-NAD compared to NAD; format: biochemical, Bacillus sp. No. 3

## mannose
[1]
  Substrate specificity (relative activity): 0%

## OC[C@H]1O[C@H](O[C@H]2[C@H](O)[C@@H](O)[C@H](O)O[C@@H]2CO)[C@H](O)[C@@H](O)[C@@H]1O [maltose]
[1]
  Substrate specificity (relative activity): 0%

## NC(=O)c1ccc[n+]([C@@H]2O[C@H](COP(=O)([O-])OP(=O)(O)OC[C@H]3O[C@@H](n4cnc5c(N)ncnc54)[C@H](O)[C@@H]3O)[C@@H](O)[C@H]2O)c1 [NAD, nicotinamide adenine dinucleotide]
[2]; read-out: Km value for NAD
  Km: ~70 µM

## O[C@H]1[C@H](O)[C@@H](O)[C@H](O)[C@@H](O)[C@H]1O [myo-inositol]
[1]
  Substrate specificity (relative activity): 100%
[3]; coenzyme 1 mM NAD, Tris-HCl buffer pH 8.5, read-out: Km-value (myo-inositol)
  Km: 640 µM and ~600 µM
[3]; coenzyme 1 mM thio-NAD, read-out: Km-value (myo-inositol)
  Km: 10000 µM
[3]; reaction of NADP and myo-inositol, read-out: Km-value (myo-inositol)
  Km: 30900 µM
[2]; read-out: Km value for myo-inositol
  Km: ~11000 µM

## OC[C@H]1O[C@@H](O[C@H]2[C@H](O)[C@@H](O)C(O)O[C@@H]2CO)[C@H](O)[C@@H](O)[C@H]1O (stereo partly drawn) [lactose]
[1]
  Substrate specificity (relative activity): 0%

## NC(=S)c1ccc[n+]([C@@H]2O[C@H](COP(=O)([O-])OP(=O)(O)OC[C@H]3O[C@@H](n4cnc5c(N)ncnc54)[C@H](O)[C@@H]3O)[C@@H](O)[C@H]2O)c1 [thio-NAD, thionicotinamide adenine dinucleotide]
[3]; 150 mM myo-inositol, read-out: Km-value (thio-NAD)
  Km: 170 µM
[4]
  Relative activity when coenzyme thio-NAD is used, as compared to NAD: 10-15%

## galactose
[1]
  Substrate specificity (relative activity): 0%

## glucose
[1]
  Substrate specificity (relative activity): 0%

## NC(=O)c1ccc[n+]([C@@H]2O[C@H](COP(=O)([O-])OP(=O)(O)OC[C@H]3O[C@@H](n4cnc5c(N)ncnc54)[C@H](OP(=O)(O)O)[C@@H]3O)[C@@H](O)[C@H]2O)c1 [NADP, nicotinamide adenine dinucleotide phosphate]
[3]; reaction of NADP and myo-inositol, read-out: Km-value (NADP)
  Km: 190 µM

## O=C(CO)[C@@H](O)[C@H](O)[C@H](O)CO [fructose]
[1]
  Substrate specificity (relative activity): 0%

## OC[C@H]1O[C@@](CO)(O[C@H]2O[C@H](CO)[C@@H](O)[C@H](O)[C@H]2O)[C@@H](O)[C@@H]1O [saccharose]
[1]
  Substrate specificity (relative activity): 0%

## OC[C@@H](O)[C@@H](O)[C@H](O)[C@@H](O)CO [sorbitol]
[1]
  Substrate specificity (relative activity): 0%

## NC(=S)c1ccc[n+]([C@@H]2O[C@H](COP(=O)([O-])OP(=O)(O)OC[C@H]3O[C@@H](n4cnc5c(N)ncnc54)[C@H](OP(=O)(O)O)[C@@H]3O)[C@@H](O)[C@H]2O)c1 [thio-NADP, thionicotinamide adenine dinucleotide phosphate]
[3]; reaction of thio-NADP and myo-inositol, read-out: Km-value (thio-NADP)
  Km: 2540 µM
